Laboratory results from patent US9856245B2, “GPR40 agonists for the treatment of type II diabetes” (Janssen Pharmaceutica NV, priority 2015, dated 2018).
Several values for one entry are separate records, joined by “and”; a condition that tells them apart may be missing. Equal entries are not always repeated.

Target: T1, human GPR40 (Homo sapiens, UniProt O14842)
T1 construct: expressed in transfected cells
Experiment: GPR40 calcium flux assay (hGPR40 Ca2+ Assay)
Type: cell-based
Conditions: transfected HEK293 cells stably expressing human GPR40; Fluo 8 calcium dye; multiple values = repeated testing; read-out: hGPR40 Ca^2+ Assay EC50
Experimental: Compounds were tested in a calcium flux assay using transfected HEK293 cells stably expressing either human GPR40 or rat GPR40. Human GPR40 expressing cells were cultured in DMEM-High Glucose media supplemented with 10% fetal bovine serum, 1× L-Glutamine, 1× Penicillin/Streptomycin and 500 μg/mL G418. Rat GPR40 expressing cells were cultured in DMEM-High Glucose media supplemented with 10% fetal bovine serum and 1 μg/mL puromycin. Cells were plated into poly-D-lysine coated 384-well plates and cultured overnight in a 37° C. humidified tissue culture incubator under 5% CO2/[…] atmosphere. On the day of the experiment, the culture media was replaced with assay buffer (HBSS, 20 mM HEPES, 0.1% BSA) and the cells incubated at 37° C. for 1 h. Calcium-sensitive fluorescent dye (Fluo 8 No-Wash Calcium Dye, ABD Bioquest) was then added and the cells incubated for another 30 min at 37° C. followed by 15 min at room temperature while protected from the light. The cell plate and a plate of diluted compounds of Formula (III) were loaded into a fluorescent plate reader that added compounds onto the cells while measuring the fluorescence intensity of each well. The plate reader recorded fluorescence intensity at 1 second intervals for 8 min and provided the data for analysis in an Excel format. EC50 values were calculated using Prism (GraphPad) software.

T1 sequence (O14842 whole entry): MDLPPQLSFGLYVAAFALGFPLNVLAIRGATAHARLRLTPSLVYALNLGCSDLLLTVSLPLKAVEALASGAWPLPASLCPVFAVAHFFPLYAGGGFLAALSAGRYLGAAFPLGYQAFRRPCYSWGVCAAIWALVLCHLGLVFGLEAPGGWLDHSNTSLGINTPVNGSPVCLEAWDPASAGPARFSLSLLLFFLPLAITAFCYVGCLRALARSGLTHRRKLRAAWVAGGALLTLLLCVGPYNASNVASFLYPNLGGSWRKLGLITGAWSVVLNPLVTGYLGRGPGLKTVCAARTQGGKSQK

Row | SMILES | EC50
1 | COc1ccc(F)c(-n2cnc(COc3cccc([C@@H](CC(=O)O)C4CC4)c3)c2C2=CCCC2(C)C)c1 [Cpd 87, (3S)-3-cyclopropyl-3-[3-[[5-(5,5-dimethylcyclopenten-1-yl)-1-(2-fluoro-5-methoxy-phenyl)imidazol-4-yl]methoxy]phenyl]propanoic acid] | 85 nM and 68 nM
2 | COc1ccc(F)c(-n2ncc(COc3cccc([C@@H](CC(=O)O)C4CC4)c3)c2C=C(C)C)c1 [Cpd 89, (3S)-3-cyclopropyl-3-[3-[[1-(2-fluoro-5-methoxy-phenyl)-5-(2-methylprop-1-enyl)pyrazol-4-yl]methoxy]phenyl]propanoic acid] | 11 nM and 9 nM
3 | COc1ccc(F)c(-n2ncc(COc3cccc([C@@H](CC(=O)O)C4CC4)c3)c2Br)c1 [Cpd 90, (3S)-3-[3-[[5-bromo-1-(2-fluoro-5-methoxy-phenyl)pyrazol-4-yl]methoxy]phenyl]-3-cyclopropyl-propanoic acid] | 86 nM and 83 nM
4 | COc1ccc(F)c(-n2cnc(COc3cccc([C@@H](CC(=O)O)C4CC4)c3)c2C=C(C)C)c1 [Cpd 91, (3S)-3-cyclopropyl-3-[3-[[1-(2-fluoro-5-methoxy-phenyl)-5-(2-methylprop-1-enyl)imidazol-4-yl]methoxy]phenyl]propanoic acid] | 477 nM and 413 nM
5 | COc1ccc(F)c(-n2cnc(COc3cccc([C@@H](CC(=O)O)C4CC4)c3)c2CC(C)C)c1 [Cpd 93, (3S)-3-cyclopropyl-3-[3-[[1-(2-fluoro-5-methoxy-phenyl)-5-isobutyl-imidazol-4-yl]methoxy]phenyl]propanoic acid] | 136 nM and 132 nM
6 | COc1ccc(F)c(-n2ncc(COc3cccc([C@@H](CC(=O)O)C4CC4)c3)c2-c2ccc(F)cc2F)c1 [Cpd 95, (3S)-3-cyclopropyl-3-[3-[[5-(2,4-difluorophenyl)-1-(2-fluoro-5-methoxy-phenyl)pyrazol-4-yl]methoxy]phenyl]propanoic acid] | 65 nM and 55 nM
7 | COc1ccc(F)c(-n2ncc(COc3cccc([C@@H](CC(=O)O)C4CC4)c3)c2-c2cc(C)cc(C)c2)c1 [Cpd 96, (3S)-3-cyclopropyl-3-[3-[[5-(3,5-dimethylphenyl)-1-(2-fluoro-5-methoxy-phenyl)pyrazol-4-yl]methoxy]phenyl]propanoic acid] | 25 nM and 23 nM
8 | COc1ccc(F)c(-n2nnc(COc3cccc([C@@H](CC(=O)O)C4CC4)c3)c2OC2CCCCC2)c1 [Cpd 97, (3S)-3-[3-[[5-(cyclohexoxy)-1-(2-fluoro-5-methoxy-phenyl)triazol-4-yl]methoxy]phenyl]-3-cyclopropyl-propanoic acid] | 13 nM and 8 nM

The remaining lines, values ahead:

Row | EC50 | SMILES
9 | 4 nM and 2 nM | COc1ccc(F)c(-n2nnc(COc3cccc([C@@H](CC(=O)O)C4CC4)c3)c2C2=CCCC2(C)C)c1 [Cpd 86, (3S)-3-cyclopropyl-3-[3-[[5-(5,5-dimethylcyclopenten-1-yl)-1-(2-fluoro-5-methoxy-phenyl)triazol-4-yl]methoxy]phenyl]propanoic acid]
10 | 24 nM and 23 nM | COc1ccc(F)c(-n2nnc(COc3cccc([C@@H](CC(=O)O)C4CC4)c3)c2-c2ccc(C)s2)c1 [Cpd 88, (3S)-3-cyclopropyl-3-[3-[[1-(2-fluoro-5-methoxy-phenyl)-5-(5-methyl-2-thienyl)triazol-4-yl]methoxy]phenyl]propanoic acid]
11 | 10 nM and 9 nM | COc1ccc(F)c(-n2nnc(COc3cccc([C@@H](CC(=O)O)C4CC4)c3)c2-c2ccc(C(C)(C)C)s2)c1 [Cpd 92, (3S)-3-[3-[[5-(5-tert-butyl-2-thienyl)-1-(2-fluoro-5-methoxy-phenyl)triazol-4-yl]methoxy]phenyl]-3-cyclopropyl-propanoic acid]
12 | 121 nM and 60 nM | COc1ccc(F)c(-n2ncc(COc3cccc([C@@H](CC(=O)O)C4CC4)c3)c2-c2ccc(C)s2)c1 [Cpd 94, (3S)-3-cyclopropyl-3-[3-[[1-(2-fluoro-5-methoxy-phenyl)-5-(5-methyl-2-thienyl)pyrazol-4-yl]methoxy]phenyl]propanoic acid]
13 | 47 nM and 36 nM | COc1ccc(F)c(-n2nnc(COc3cccc([C@@H](CC(=O)O)C4CC4)c3)c2OC(C)C)c1 [Cpd 98, (3S)-3-cyclopropyl-3-[3-[[1-(2-fluoro-5-methoxy-phenyl)-5-isopropoxy-triazol-4-yl]methoxy]phenyl]propanoic acid]
